Measurements: ChEMBL document CHEMBL4825677, “Design, synthesis and biological evaluation of novel benzofuran derivatives as potent LSD1 inhibitors” (Eur J Med Chem, 2021)

Key:
THP-1 = test: cells; details: Homo sapiens, THP-1, 72 h
Description: Antiproliferative activity against human THP-1 cells assessed as reduction in cell viability incubated for 72 hrs by CCK8 assay

THLE-2 = test: cells; details: Homo sapiens, THLE-2, 72 h
Description: Cytotoxicity against human THLE-2 cells assessed as reduction in cell viability incubated for 72 hrs by CCK8 assay

NCI-H460 [1] = test: cells; details: Homo sapiens, NCI-H460, 72 h
Description: Antiproliferative activity against human NCI-H460 cells assessed as reduction in cell viability incubated for 72 hrs by CCK8 assay

MGC-803 [2] = test: cells; details: Homo sapiens, MGC-803, 72 h
Description: Antiproliferative activity against human MGC-803 cells assessed as reduction in cell viability incubated for 72 hrs by CCK8 assay

MCF7 = test: cells; details: Homo sapiens, MCF7, 72 h
Description: Antiproliferative activity against human MCF7 cells assessed as reduction in cell viability incubated for 72 hrs by CCK8 assay

A549 = test: cells; details: Homo sapiens, A549, 72 h
Description: Antiproliferative activity against human A549 cells assessed as reduction in cell viability incubated for 72 hrs by CCK8 assay

NCI-H460 [3] = test: Induction of apoptosis in human NCI-H460 cells assessed as late apoptotic cells at 3 uM incubated for 48 hrs by AnnexinV-FITC/propidium iodide staining based flow cytometric analysis (reference value: 1.36%); format: functional
Cytochrome P450 1A2 = biological target: T1, Cytochrome P450 1A2 (Homo sapiens, UniProt P05177); test: Inhibition of CYP1A2 in human liver microsomes at 10 uM by LC-MS/MS analysis; format: ADME
T1 sequence (P05177 whole entry): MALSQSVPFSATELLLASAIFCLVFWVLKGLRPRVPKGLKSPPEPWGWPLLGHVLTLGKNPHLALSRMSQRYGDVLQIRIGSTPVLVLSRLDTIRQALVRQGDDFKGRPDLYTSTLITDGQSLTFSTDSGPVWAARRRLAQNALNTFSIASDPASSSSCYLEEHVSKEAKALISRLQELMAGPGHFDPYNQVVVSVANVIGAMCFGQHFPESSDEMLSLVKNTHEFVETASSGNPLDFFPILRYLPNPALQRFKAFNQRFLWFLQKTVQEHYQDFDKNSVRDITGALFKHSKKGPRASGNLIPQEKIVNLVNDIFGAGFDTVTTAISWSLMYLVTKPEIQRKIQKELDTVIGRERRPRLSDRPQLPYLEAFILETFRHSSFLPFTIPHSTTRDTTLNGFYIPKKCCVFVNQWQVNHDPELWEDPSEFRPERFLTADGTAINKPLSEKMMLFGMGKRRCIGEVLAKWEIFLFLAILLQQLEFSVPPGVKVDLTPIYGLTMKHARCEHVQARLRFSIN

NCI-H460 [4] = test: Inhibition of cell migration in human NCI-H460 cells assessed as reduction in cell migration measured after 48 hrs by wound healing assay; format: functional, cell-based; details: dose 0.3-1.2 µM
NCI-H460 [5] = test: Inhibition of cell migration in human NCI-H460 assessed as reduction in cell migration at 0.3 to 1.2 uM by wound healing assay; format: functional, cell-based; details: dose 0.3-1.2 µM, time 24-48 hrs, TDE = time-dependent effect
[6] = Metabolic stability in human liver microsomes assessed as half-life by LC-MS/MS analysis; format: ADME, Microsome
[7] = Microsomal stability in human liver microsomes assessed as parent compound remaining after 60 mins in presence of NADPH regenerating system by LC-MS/MS analysis; format: ADME, Microsome; details: read-out: Stabilty
[8] = Microsomal stability in human liver microsomes assessed as parent compound remaining after 60 mins in absence of NADPH regenerating system by LC-MS/MS analysis; format: ADME, Microsome; details: read-out: Stabilty
NCI-H460 [9] = test: Induction of apoptosis in human NCI-H460 cells assessed as late apoptotic cells at 1 uM incubated for 48 hrs by AnnexinV-FITC/propidium iodide staining based flow cytometric analysis (reference value: 1.36%); format: functional
[10] = Metabolic stability in human liver microsome assessed as intrinsic clearance by LC-MS/MS analysis; format: ADME; details: liver microsomes, read-out: CLH
NCI-H460 [11] = test: Induction of apoptosis in human NCI-H460 cells assessed as late apoptotic cells at 2 uM incubated for 48 hrs by AnnexinV-FITC/propidium iodide staining based flow cytometric analysis (reference value: 1.36%); format: functional
NCI-H460 [12] = test: Induction of apoptosis in human NCI-H460 cells assessed as early apoptotic cells at 3 uM incubated for 48 hrs by AnnexinV-FITC/propidium iodide staining based flow cytometric analysis (reference value: 2.22%); format: functional
NCI-H460 [13] = test: Induction of apoptosis in human NCI-H460 cells assessed as early apoptotic cells at 2 uM incubated for 48 hrs by AnnexinV-FITC/propidium iodide staining based flow cytometric analysis (reference value: 2.22%); format: functional
Cytochrome P450 2C9 = Cytochrome P450 2C9 (Homo sapiens, UniProt P11712); test: Inhibition of CYP2C9 in human liver microsomes at 10 uM by LC-MS/MS analysis; format: ADME
Chain of Cytochrome P450 2C9 (P11712 whole entry): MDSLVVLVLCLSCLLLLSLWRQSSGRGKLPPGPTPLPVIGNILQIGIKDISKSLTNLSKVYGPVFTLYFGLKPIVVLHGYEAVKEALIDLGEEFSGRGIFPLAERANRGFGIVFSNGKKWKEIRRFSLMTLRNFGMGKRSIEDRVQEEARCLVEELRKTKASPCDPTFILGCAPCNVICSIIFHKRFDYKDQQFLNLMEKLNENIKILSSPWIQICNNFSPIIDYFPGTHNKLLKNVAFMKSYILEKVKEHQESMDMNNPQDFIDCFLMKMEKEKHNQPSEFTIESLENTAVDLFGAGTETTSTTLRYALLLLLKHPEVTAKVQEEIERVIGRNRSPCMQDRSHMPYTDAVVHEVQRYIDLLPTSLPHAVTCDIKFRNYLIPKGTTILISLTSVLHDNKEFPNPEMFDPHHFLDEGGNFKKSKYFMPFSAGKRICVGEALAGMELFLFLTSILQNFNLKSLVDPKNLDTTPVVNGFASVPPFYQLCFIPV

Cytochrome P450 2C19 = Cytochrome P450 2C19 (Homo sapiens, UniProt P33261); test: Inhibition of CYP2C19 in human liver microsomes at 10 uM by LC-MS/MS analysis; format: ADME
Chain of Cytochrome P450 2C19 (P33261 whole entry): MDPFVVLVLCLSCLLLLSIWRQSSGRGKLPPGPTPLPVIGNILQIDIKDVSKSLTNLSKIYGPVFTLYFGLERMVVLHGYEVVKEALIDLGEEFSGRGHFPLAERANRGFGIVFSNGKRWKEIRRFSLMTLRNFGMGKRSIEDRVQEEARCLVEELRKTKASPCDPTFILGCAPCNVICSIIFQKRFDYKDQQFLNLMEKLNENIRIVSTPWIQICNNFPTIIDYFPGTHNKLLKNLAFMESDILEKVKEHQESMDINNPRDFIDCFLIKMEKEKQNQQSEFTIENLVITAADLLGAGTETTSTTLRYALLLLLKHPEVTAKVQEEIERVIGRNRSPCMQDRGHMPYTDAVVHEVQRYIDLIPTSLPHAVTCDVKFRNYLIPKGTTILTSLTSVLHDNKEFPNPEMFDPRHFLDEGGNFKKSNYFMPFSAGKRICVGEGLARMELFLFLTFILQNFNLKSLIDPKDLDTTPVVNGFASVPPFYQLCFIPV

Cytochrome P450 2D6 = Cytochrome P450 2D6 (Homo sapiens, UniProt P10635); test: Inhibition of CYP2D6 in human liver microsomes at 10 uM by LC-MS/MS analysis; format: ADME
Chain of Cytochrome P450 2D6 (P10635 whole entry): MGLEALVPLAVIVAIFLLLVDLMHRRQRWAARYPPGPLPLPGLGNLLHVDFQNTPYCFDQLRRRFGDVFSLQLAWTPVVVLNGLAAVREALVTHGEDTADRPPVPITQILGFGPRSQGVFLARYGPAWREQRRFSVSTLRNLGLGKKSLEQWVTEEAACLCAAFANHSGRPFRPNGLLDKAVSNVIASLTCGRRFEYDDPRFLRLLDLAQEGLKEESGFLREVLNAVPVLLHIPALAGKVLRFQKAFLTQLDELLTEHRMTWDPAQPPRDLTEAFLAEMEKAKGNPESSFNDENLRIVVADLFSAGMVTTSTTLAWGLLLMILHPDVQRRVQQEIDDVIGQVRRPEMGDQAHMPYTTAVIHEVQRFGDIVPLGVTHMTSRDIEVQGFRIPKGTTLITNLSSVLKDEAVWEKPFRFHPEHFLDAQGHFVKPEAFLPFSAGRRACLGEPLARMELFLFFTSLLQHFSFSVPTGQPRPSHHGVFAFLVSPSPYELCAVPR

[14] = Metabolic stability in human liver assessed as intrinsic clearance by LC-MS/MS analysis; format: ADME, tissue-based; details: read-out: CLH
Cytochrome P450 3A4 = Cytochrome P450 3A4 (Homo sapiens, UniProt P08684); test: Inhibition of CYP3A4 in human liver microsomes at 10 uM by LC-MS/MS analysis; format: ADME
Chain of Cytochrome P450 3A4 (P08684 whole entry): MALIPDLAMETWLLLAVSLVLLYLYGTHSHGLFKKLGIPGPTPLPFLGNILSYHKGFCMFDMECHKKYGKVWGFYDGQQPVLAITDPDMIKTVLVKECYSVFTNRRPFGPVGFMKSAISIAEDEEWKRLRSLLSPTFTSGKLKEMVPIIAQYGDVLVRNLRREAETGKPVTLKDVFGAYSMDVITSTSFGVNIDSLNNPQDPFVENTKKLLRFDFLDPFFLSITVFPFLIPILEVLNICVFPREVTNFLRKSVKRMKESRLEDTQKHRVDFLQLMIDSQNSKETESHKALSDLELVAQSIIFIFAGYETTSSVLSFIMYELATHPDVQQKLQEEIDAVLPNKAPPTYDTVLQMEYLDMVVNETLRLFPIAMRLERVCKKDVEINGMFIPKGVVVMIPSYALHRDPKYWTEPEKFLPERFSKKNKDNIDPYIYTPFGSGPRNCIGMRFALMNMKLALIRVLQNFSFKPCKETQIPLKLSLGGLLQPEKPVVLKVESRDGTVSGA

NCI-H460 [15] = test: Induction of apoptosis in human NCI-H460 cells assessed as early apoptotic cells at 1 uM incubated for 48 hrs by AnnexinV-FITC/propidium iodide staining based flow cytometric analysis (reference value: 2.22%); format: functional
MGC-803 [16] = test: Antiproliferative activity against human MGC-803 cells assessed as inhibition of cell growth by MTT assay; format: functional, cell-based
[17] = biological target: Lysine-specific histone demethylase 1A (Homo sapiens, UniProt O60341); test: Inhibition of human recombinant LSD1 by horseradish peroxidase-coupled fluorometric assay
[18] = biological target: T2, Amine oxidase [flavin-containing] B (Homo sapiens, UniProt P27338); test: Inhibition of N-terminal FLAG-tagged human recombinant MAO-B expressed in baculovirus-infected Sf9 cells by […]
T2 sequence (P27338 whole entry): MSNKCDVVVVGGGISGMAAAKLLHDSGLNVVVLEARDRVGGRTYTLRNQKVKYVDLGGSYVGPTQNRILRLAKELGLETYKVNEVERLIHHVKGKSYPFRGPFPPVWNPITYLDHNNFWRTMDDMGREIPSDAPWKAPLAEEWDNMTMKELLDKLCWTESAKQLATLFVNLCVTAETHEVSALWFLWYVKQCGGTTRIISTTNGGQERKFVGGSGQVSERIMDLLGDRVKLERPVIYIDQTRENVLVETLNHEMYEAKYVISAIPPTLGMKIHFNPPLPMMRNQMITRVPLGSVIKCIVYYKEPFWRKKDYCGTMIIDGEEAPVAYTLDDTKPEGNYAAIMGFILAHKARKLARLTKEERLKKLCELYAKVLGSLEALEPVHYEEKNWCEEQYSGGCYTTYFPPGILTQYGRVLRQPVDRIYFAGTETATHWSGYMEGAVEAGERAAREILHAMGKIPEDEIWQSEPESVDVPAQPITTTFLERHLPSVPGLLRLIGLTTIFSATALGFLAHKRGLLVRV

[19] = biological target: T3, Amine oxidase [flavin-containing] A (Homo sapiens, UniProt P21397); test: Inhibition of N-terminal FLAG-tagged human recombinant MAO-A expressed in baculovirus-infected Sf9 cells by […]
T3 sequence (P21397 whole entry): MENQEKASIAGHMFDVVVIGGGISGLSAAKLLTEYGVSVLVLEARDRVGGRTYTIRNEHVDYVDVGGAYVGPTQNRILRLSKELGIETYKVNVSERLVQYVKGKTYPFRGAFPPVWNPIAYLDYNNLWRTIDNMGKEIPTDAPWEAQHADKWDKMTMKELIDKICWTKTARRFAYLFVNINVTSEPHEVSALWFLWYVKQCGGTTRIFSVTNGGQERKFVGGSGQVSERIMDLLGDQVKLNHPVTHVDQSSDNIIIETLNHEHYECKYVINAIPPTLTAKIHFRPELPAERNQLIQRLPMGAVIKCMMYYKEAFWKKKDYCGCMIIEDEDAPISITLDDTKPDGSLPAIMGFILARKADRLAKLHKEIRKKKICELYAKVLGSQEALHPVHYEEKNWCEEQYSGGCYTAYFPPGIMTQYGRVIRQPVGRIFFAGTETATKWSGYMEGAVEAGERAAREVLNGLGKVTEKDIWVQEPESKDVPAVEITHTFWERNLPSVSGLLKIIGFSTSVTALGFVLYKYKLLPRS

NCI-H460 [20] = test: Antitumor activity against human NCI-H460 cells xenografted in BALB/c mouse assessed as reduction in tumor weight at 20 mg/kg/day, ip for 15 days; format: functional; details: 360 h, time 15 day
[21] = Toxicity in BALB/c mouse xenografted with human NCI-H460 cells assessed as body weight at 10 to 20 mg/kg/day, ip for 15 days and measured every 3 days; format: organism-based; details: in vivo, 360 h, dose 10-20 mg/kg/day, time 15 day
NCI-H460 [22] = test: Antitumor activity against human NCI-H460 cells xenografted in BALB/c mouse assessed as reduction in tumor volume at 20 mg/kg/day, ip for 15 days; format: functional; details: 360 h, time 15 day

Row | IC50 (THP-1) | IC50 (THLE-2) | IC50 (NCI-H460 [1]) | IC50 (MGC-803 [2]) | IC50 (MCF7) | IC50 (A549) | inhibition (INH) (Cytochrome P450 1A2) | half-life [6] | remaining at 1 h [7] | remaining at 1 h [8] | microsomal CLint [10] | inhibition (INH) (Cytochrome P450 2C9) | inhibition (INH) (Cytochrome P450 2C19) | inhibition (INH) (Cytochrome P450 2D6) | CLint scaled [14] | inhibition (INH) (Cytochrome P450 3A4) | IC50 [18] | IC50 [19] | SMILES | other results
1 | 7.06 µM | 1.41 µM | 1.58 µM | 6.27 µM | 4.31 µM | 6.33 µM | – | – | – | – | – | – | – | – | – | – | – | – | Cc1ccc(-c2cc3occ(CNC4CCC(N)CC4)c3cc2-c2ccc(C#N)cc2)cc1 (centres undefined) | –
2 | 6 µM | 4.76 µM | 2.13 µM | 5.83 µM | 3.29 µM | 5.5 µM | Active | 1.58 h | 65.2% | 56.7% | 14.6 µL/min/mg | Active | Active | Active | 13.2 mL/min/kg | Active | > 20 µM | > 20 µM | Cc1ccc(-c2cc3occ(CNC4CCNC4)c3cc2-c2ccc(C#N)cc2)cc1 (centres undefined) | –
3 | 6.15 µM | 7.07 µM | 2.06 µM | 5.85 µM | 2.9 µM | 5.74 µM | Active | – | 47% | 76.1% | – | Active | Active | Active | – | Active | > 20 µM | > 20 µM | Cc1ccc(-c2cc3occ(CN4CCC[C@H](N)C4)c3cc2-c2ccc(C#N)cc2)cc1 | Activity (NCI-H460 [3]): 11.01%; inhibition (NCI-H460 [4]): Dose-Dependent Effect; inhibition (NCI-H460 [5]): Tde; inhibition in vivo at 20 mg/kg/day (NCI-H460 [20]): 64%; Activity (NCI-H460 [9]): 0.87%; Activity (NCI-H460 [11]): 2.77%; Activity [21]: Non-Toxic; Activity (NCI-H460 [12]): 19.13%; Activity (NCI-H460 [13]): 6.78%; inhibition in vivo at 20 mg/kg/day (NCI-H460 [22]): 68%; Activity (NCI-H460 [15]): 2.22%
4 | 6.68 µM | 3.94 µM | 1.9 µM | 7.55 µM | 5.72 µM | 2.45 µM | – | – | – | – | – | – | – | – | – | – | – | – | Cc1ccc(-c2cc3occ(CNCCN)c3cc2-c2ccc(C#N)cc2)cc1 | –

The next lines start with the compound.

Row | SMILES | IC50 (THP-1) | IC50 (THLE-2) | IC50 (NCI-H460 [1]) | IC50 (MGC-803 [2]) | IC50 (MCF7) | IC50 (A549) | inhibition (INH) (Cytochrome P450 1A2) | half-life [6] | remaining at 1 h [7] | remaining at 1 h [8] | microsomal CLint [10] | inhibition (INH) (Cytochrome P450 2C9) | inhibition (INH) (Cytochrome P450 2C19) | inhibition (INH) (Cytochrome P450 2D6) | CLint scaled [14] | inhibition (INH) (Cytochrome P450 3A4) | IC50 [18] | IC50 [19] | other results
5 | Cc1ccc(-c2ncc(OCC3CCNCC3)cc2-c2ccc(C#N)cc2)cc1 | 34 µM | 7.83 µM | – | 12.4 µM | 16.9 µM | 9.73 µM | Active | 1.78 h | 67.5% | 88.6% | 13 µL/min/mg | Active | Active | Active | 11.7 mL/min/kg | Active | – | – | Activity (NCI-H460 [3]): 1.21%; inhibition (NCI-H460 [4]): Dose-Dependent Effect; inhibition (NCI-H460 [5]): Tde; Activity (NCI-H460 [9]): 1.12%; Activity (NCI-H460 [11]): 0.9%; Activity (NCI-H460 [12]): 1.6%; Activity (NCI-H460 [13]): 1.29%; Activity (NCI-H460 [15]): 1.49%
6 | O=C(O)[C@H]1O[C@@H](Oc2cc3oc(-c4ccccc4)cc(=O)c3c(O)c2O)[C@H](O)[C@@H](O)[C@@H]1O [BAICALIN] | – | – | – | – | – | – | – | – | – | – | – | – | – | – | – | – | – | – | IC50 (MGC-803 [16]): 8.78 µM
7 | NC1C[C@@H]1c1ccc(-c2cccc(O)c2)cc1 (single isomer, unassigned) | – | – | – | – | – | – | – | – | – | – | – | – | – | – | – | – | – | – | IC50 [17]: 40.5 µM
8 | CNCCCN(C)Cc1coc2cc(-c3ccc(C)cc3)c(-c3ccc(C#N)cc3)cc12 | 4.87 µM | 4.2 µM | 1.87 µM | 6.47 µM | 3.36 µM | 4.08 µM | Active | 0.168 h | 7.9% | 55.8% | 138 µL/min/mg | Active | Active | Active | 124 mL/min/kg | Active | > 20 µM | > 20 µM | –
